According to patent publication US9014457B2, “Quantifying cell death” (UCL Business PLC, priority 2009, dated 2015):
“Also recorded” adds a separate entry of the source.

Columns and labels:
Cyclophilin D = assay: Histological cross sections of retina stained for Cyclophilin D, OHT rat eyes; type: in vivo
[1] = in vivo; cited from earlier work
RGC apoptosis = assay: DARC in vivo imaging of OHT rat eyes, topical CoQ10; details: topical on Day 0, 1, 7, 21 & 42; at 3 & 6 weeks after elevated IOP; vs control
Text: FIG. 14B DARC in vivo imaging of OHT rat eyes at 3 weeks after elevated intraocular pressure (IOP) showing increased RGC apoptosis (white spots) in Control (A) compared to CoQ10-treated (B) eyes.

neuronal cells = details: cited from earlier work
[2] = tested on: calcium signal in the retina; assay: Calcium transients in calcium transgenic mouse eye (FCIPs) in vivo; details: intravitreal; vs baseline
Text: FIG. 13C Calcium transgenic mice with genetically-encoded fluorescent Ca2+ indicator proteins (FCIPs) were imaged in vivo. Aβ25-35-induced calcium transients in a calcium transgenic mouse eye. […] Analysis of the fluorescent signal after Aβ injection at t=o, is shown graphically with fluorescence seen in the areas Identified by coloured boxes in inset (D,E).

[3] = tested on: mitochondrial membrane potential in the retina; assay: Mitochondrial membrane potential (MMP) in mouse eye in vivo, Rho123 fluorescence; details: vs baseline, few minutes delay, p<0.01
Protocol: FIG. 11B. Early investigations show the effects of intravitreal rotenone on mitochondrial membrane potential (MMP) in a mouse eye in vivo.
FIG. 11C. Using the same analysis, we looked at the effects of Aβ25-35 on MMP in vivo in a mouse eye. Rho123 is a fluorescent probe, used to detect the changes in mitochondrial fluorescent density. […] The dashed line in C represents baseline fluorescence before Rho123 was injected

[4] = tested on: calcium signals in the retina; assay: Calcium signals in vivo in a mouse eye, Fura red; details: ten minutes after 5 nmol; vs pre-treatment, p<0.001
Text: FIG. 13B. The effects of Aβ25-35 on calcium signals in vivo in a mouse eye. […] Ten minutes after Aβ25-35 (5 nmol) application (as shown D) however, a stronger fluorescent signal was detected in the RGCL (C).

RGC [5] = assay: Abeta (Aβ25-35)-induced RGC death model, in vivo cSLO imaging with annexin V and PI; parameters: species or system mouse
Protocol: For the analysis of Abeta, freshly made Aβ25-35 (Sigma-Aldrich, 3.40 nmol) (Dahlgren et al., 2002) was intravitreally injected into C57 mice (n=10) (Maass et al., 2007). Animals were imaged at 72 hours. For AD 3× Tg-AD studies, 4 eyes (all female, 14 months) with 2 eyes from aged control mice (PS1KI; female, 18 months) were assessed. 3× Tg-AD and control PS1KI mice were obtained from a colony (maintained at CeSI) established after a generous gift of Frank Laferla. Intravitreal phorbol myristate acetate (1 μl of 10 μg/ml) was administered to left eyes of 3× Tg-AD animals, at the same time as annexin V and PI.
Using a method the inventors have recently described, rats were given 2.5 μg of intravitreal Alexa Fluor 488 labelled annexin V in 5 μl PBS for identification of RGC apoptosis, 2 hours before in vivo imaging (Cordeiro et al., 2004). For mice, the inventors used 1 μl of a 0.25 mg/ml solution of IR-labelled annexin (Annexin-IR) in intravitreal injections as previously described (Schmitz-Valckenberg et al., 2008).
In order to identify necrotic RGCs in rats (2 μl) and mice (1 μl), propidium iodide (PI; 0.4 mg/ml, 1% solution, Sigma-Aldrich, Dorset UK) was administered intravitreally at the same time as annexin, 2 hours before in vivo imaging. PI intercalates into nucleic acids, binding to double-stranded DNA, but only crosses the plasma membrane of non-viable cells. Cells that have lost membrane integrity are thus identified by fluorescent red PI staining throughout the nuclei.
In mice, the inventors used instrumentation as previously described (Maass et al., 2007; Schmitz-Valckenberg et al., 2008), with a modified cSLO (Heidelberg Retina Angiograph 2, Heidelberg Engineering, Dossenheim, Germany) and a wide-field lens (55°). The fluorescein angiogram (488 nm argon laser) and indocyanine green (IR 790 nm diode laser) settings were used to detect PI and IR-labelled annexin respectively. The same software was used to analyse video sequenced images as described before with whole retinal monochrome images from each eye recorded and colourised. Dual-color images were produced by combining each of the grayscale images from the cSLO into the red (PI), and green (IR annexin) of an RGB color image.
The left eye of each animal was treated with intravitreal 0.40 nmol MK801 at the same time as Abeta. Wide-angle retinal images were recorded 2 hours following intravitreal annexin (green) and PI (red), as previously described (Guo at al., 2006).
To assess the relative levels of early apoptosis, late apoptosis and necrosis the inventors studied the co-localization of PI and annexin V using ImageJ software with the Intensity Correlation Analysis plugin (Li et al., 2004). Colour and raw scatter plots of annexin and PI fluorescence intensity were constructed from plugin-generated data for each animal. Corresponding scatter plots (blue) from the eyes shown in FIG. 8a-b are illustrated in FIG. 8c-d. The data were analysed in a similar manner to data derived by in vitro FACS analysis, with four quadrants (midlines shaded in colour overlay as red, green, blue and yellow) enabling separation of the different phases of cell death as annexin V positive (early apoptosis, green), annexin V and PI double positive (late apoptosis, yellow) and PI positive (necrosis, red). Thresholds were set automatically by the plugin for each analysis of each eye. The inventors then used fluorescence intensity counts from the raw scatter plots to quantify each phase of cell death.
To further assess the analytical power of the technique, the inventors next investigated whether the level of oxidative stress in Abeta-treated eyes influenced the phase of cell death and whether this was possible to visualize in vivo. […] FIG. 8f-g are taken from the right untreated (F) and left PMA-treated (G) eye of an animal treated 72 hours previously with 3.40 nmol Aβ25-35. […]

RGC [6] = details: previously established; cited from earlier work
[7] = tested on: ROS production in the retina; assay: ROS production in mouse retina in vivo visualized with DHE; details: intravitreal; vs vehicle/control eye
Protocol: FIG. 12B. The effects of rotenone on ROS production in mouse retina in vivo. ROS production visualized with DHE (dihydroethidium). DHE is a non-fluorescent agent, reacting with ROS intracellularly to produce a fluorescent oxidative product which can be detected. Rotenone (50 uM, 1 ul) was intravitreally injected into the one eye (C57) and the same volume of vehicle (saline) injected into the contralateral eye. DHE (1 ul) was then injected intravitreally and both eyes imaged to detect ROS production using a SLO machine.
FIG. 12C. The effects of PMA in producing ROS in mouse retina in vivo. PMA (50 ug/ml, 1 ul) was injected intravitreally into the one eye and saline (1 ul) into the contralateral eye. DHE (1 ul) was simultaneously injected for detecting ROS production.
FIG. 12D. The effects of Aβ25-35 on ROS production in vivo. DHE was intravitreally injected into the both eyes of a mouse to detect ROS production.

Compound: COC1=C(OC)C(=O)C(C/C=C(\C)CC/C=C(\C)CC/C=C(\C)CC/C=C(\C)CC/C=C(\C)CC/C=C(\C)CC/C=C(\C)CC/C=C(\C)CC/C=C(\C)CCC=C(C)C)=C(C)C1=O [CoQ10, Ubiquinone]
- Cyclophilin D (CyD) in retina, histological grading (Cyclophilin D; 3 weeks after induction of OHT): increased; also recorded: significant increase
- Cyclophilin D (CyD) in retina, histological grading (Cyclophilin D; 12 weeks after elevated IOP): not at 12 weeks
- neuroprotection [1]: highly effective
- RGC apoptosis (RGC apoptosis): significantly reduced

Compound: CCCCCCCCCCCCCCCCCCN1C(=CC=CC2=[N+](CCCCCCCCCCCCCCCCCC)c3ccccc3C2(C)C)C(C)(C)c2ccccc21.[O-][Cl+3]([O-])([O-])[O-] [DiI, 1,1′-dioctadecyl-3,3,3′,3′-tetramethylindocarbocyanine perchlorate]
- cell viability, development or basic cellular physiological properties (neuronal cells): does not affect

Compound: Aβ25-35: amyloid beta peptide fragment 25-35 (Sigma-Aldrich), induces RGC apoptosis (GSNKGAIIGLM; Amyloid-beta protein 42; UniProt P05067 696-706, looked up, fragment)
- fluorescent calcium signal in the retina [2]: immediate fluorescent calcium signal
- MMP in the retina (Rho123) [3]: significant loss
- calcium signals in the retina (Fura red) [4]: significant increase
- cell death profile (phases) at time of peak apoptosis (RGC [5]; 72 h, co-localization scatter plot analysis, listed as Abeta): significantly more cells in the late phase of apoptosis; also recorded: significantly more RGCs in the phases of late apoptosis
- RGC death (RGC [5]; 72 hours after intravitreal administration of 3.40 nmol): Significant RGC death
- time point of maximal apoptosis (RGC [6]): 72 h
- ROS production in the retina (DHE fluorescence) [7]: significant increase of ROS production
